The results in this text go back to patent US11883398B2, “Dipeptidylpeptidase 4 inhibition enhances lymphocyte trafficking, improving both naturally occurring tumor immunity and immunotherapy” (INSTITUT PASTEUR, priority 2015, dated 2024).

The test system of this assay is B16F10 tumors. Kind of assay: Flow cytometry of leukocytes infiltrating B16F10 tumors. In kind it is in vivo, mouse. How it is done: B16F10 and M04 (Ovalbumin-expressing B16F10 cells, gift from C. Reis e Sousa) tumor cells were cultured in DMEM (Gibco) supplemented with 10% FCS (PAA), 0.1 mM non-essential amino acids, 1 mM sodium pyruvate, 10 mM Hepes, 70 μM beta-mercaptoethanol and 23 μg/ml gentamycin (all from Gibco). CT26 colon carcinoma cells were cultured in RPMI (Gibco) supplemented as described for DMEM. Cells for injections were passaged 1-2 times after thawing, before use. WT and genetically modified mice were subcutaneously injected with 2×10^5 B16 or 5×10^5 CT26 cells in the shaved right flank. When indicated, mice received an intra-tumoral injection of 1 μg of recombinant mCXCL10, 5 μg CpG-A in DOPTAP or vehicle control. For blocking of chemokine and chemokine receptors, WT mice were intraperitoneally injected with 100 μg of hamster a-mCXCR3 (clone CXCR3-173, BioLegend), 100 μg of hamster α-mCCR5 (clone HM-CCR5, BioLegend), 50 μg of rat anti-mCXCL10 (clone 134013, R&D systems) and 20 μg of rat-α-mCXCR4 (clone 2B11/CXCR4, BD Biosciences) or with respective isotype antibodies (hamster IgG (clone HTK888, BioLegend, used as control for mCXCR3 and mCCR5 blockage); rat IgG2a (clone 54447, R&D systems, used as control for mCXCL10 blockade) and rat IgG2b (clone A95-1, BD Biosciences, used as control for mCXCR4 blockade). Intraperitoneal injection was done one day before and 4, 8 and 12 days after tumor cell injection. For CXCL10 neutralization, antibodies were injected on day 2, 5, 8 and 11 after tumor cell injection. For immunotherapy protocols, mice were intraperitoneally injected with 100 μg of mouse α-CTLA-4 (clone 9D9, Bioxcell), 200 μg of PD1 (clone RMP1-14, Bioxcell), a combination of 100 μg of α-CTLA-4+200 μg of a-PD1 or control isotypes (100 μg […] and 200 μg rat IgG2a (clone 2A3), both from Bioxcell) on day 3, 6 and 9 after tumor cell implantation. For adoptive cell transfer experiments, Pmel-1 Thy-1.1^+Thy-1.1^+, Cxcr3^−/− Thy-1.1^+Thy-1.2^+ Pmel-1 or OT1 splenocytes were activated ex-vivo, by incubation with 1 nM of human gp100 (for Pmel-1 cells) or […] (for OT1 cells) peptides for 1h at room temperature with agitation. Splenocytes were then washed and resuspended in R10 supplemented with 30U/mL of recombinant human IL-2. CD8^+ T cells were expanded for 6-7 days before used. For analysis of tumor infiltrates, activated Cxcr3^+/+ Thy-1.1^+Thy-1.1^+ and Cxcr3^−/− Thy-1.1^+Thy-1.2^+ transgenic Pmel-1 CD8^+ T cells were mixed in a 1:1 ratio (total 1×10^6 cells) and injected intravenously into gender matched tumor-bearing mice (3 days after tumor cell injection). For analysis of tumor growth, activated OT1 cells were injected intravenously (1×10^5 cells per mouse) into gender matched tumor-bearing mice, 3 days after tumor cell injection. Tumor height and width were measured with a caliper and tumor volume was calculated (Elliptical volume=width^2×height×0.523). The model of metastatic melanoma was achieved by intravenous injection of 2×10^5 B16 tumor cells. 15 days after tumor cell injection, lungs were dissected, placed in Fekete's solution and metastatic foci were counted. Lungs with more than 100 metastatic nodules were defined as 100.
Fluorochrome-conjugated anti-mouse CD3 (clone145-2C11), CD8 (clone 53-6.7), CD4 (clone RM4-5), NK1.1 (clone PK136), CD49b (clone DX5), CD25 (clone PC61), B220 (clone RA3-6B2), Ly6G (clone 1A8), Ly6C (clone AL-21), CD11 b (clone M1/70) Siglec-F (clone E50-2440), MHCII IA-IE (clone M5/114.15.2), CD45.2 (clones 56-0454-82 and 109830), Thy-1.1 (clone HIS51), Thy-1.2 (clone 53-2.1), DPP4 (clone H194-112) and CXCR3 (clone CXCR3-173) were from eBiosciences and BD Biosciences. Fluorochrome conjugated anti-F4/80 (clone CI:A3-1) was from AbDserotec. For exclusion of dead cells, Live/Dead fixable Aqua reagent (Invitrogen) was used. For all staining protocols, cell suspensions were incubated with mouse CD16/CD32 Fc Blocking antibodies (BD Biosciences) prior to antibody. […]

[1] abbreviates: B16F10 tumors, sitagliptin vs control.

Take `N[C@@H](CC(=O)N1CCn2c(nnc2C(F)(F)F)C1)Cc1cc(F)c(F)cc1F` [sitagliptin]: under setting [1], the “number of CD4+ and CD8+ T cells localized to the tumors” value was “significant increase”; the “number of tumor-infiltrating myeloid cells, NK cells, B lymphocytes or CD25hi regulatory T cells” value is recorded as “no significant differences”. For the same molecule, under “adoptive transfer, 12-14 hr after intratumoral mCXCL10”, the “CXCL10-mediated trafficking of Pmel-1 cells into B16F10 tumors” value is listed as “enhanced”. Also, the “lymphocyte recruitment into the tumor parenchyma after intratumoral mCXCL10” value (day 7 B16F10 tumors, 12-14 h after injection) is “enhanced CXCL10 recruitment of T cells and NK cells”. The “trafficking of B cells, regulatory T cells, eosinophils or neutrophils into tumors after intratumoral mCXCL10” value (day 7 B16F10 tumors, sitagliptin vs control) is given as “unchanged”.
